Patent US8282916B2, “Tumor therapy with replication competent sindbis viral vectors” (New York University, priority 2008, dated 2012)
Entries after “also recorded” stand apart in the source; their conditions may differ.

Test system: ES-2/Fluc ovarian cancer cells
Experiment: ES-2/Fluc ovarian cancer model in SCID mice: whole body bioluminescence after daily i.p. RD-Sindbis/tk and GCV
Type: in vivo
Text: In the example below, SCID mice were intraperitoneally implanted with ES2 human ovarian cancer cells. In order to track and monitor disease progression, the ES2 cells were genetically engineered to express a firefly luciferase gene for bioluminescent imaging. Therefore, the bioluminescent signal intensity is proportional to the tumor load in these animals (FIG. 3B). Tumor-bearing mice were either mock treated or received daily treatments with a conventional RD-Sindbis/HSVtk vector.
An ES-2/Fluc ovarian cancer model was used to test if the HSVtk suicide gene enhanced the therapeutic effects of Sindbis vectors. […] SCID mice were inoculated with ES-2/Fluc on day 0. Daily GDEPT treatments involving i.p. injections of RD-Sindbis/tk and GCV (25 mg/Kg of body weight) were started on day 3. The Sindbis/tk −GCV group (n=5) received Sindbis/tk treatments but no GCV. The Sindbis/tk +GCV group (n=5) received both Sindbis/tk and GCV treatments. The Control group (n=5) was neither treated with Sindbis/tk nor GCV. The Control +GCV group (n=5) received no Sindbis/tk but was treated with GCV. Disease progression was monitored and the whole body photon counts were determined using the IVIS® system on days 1, 3, 6, 8, 12 and 14.

## Nc1nc(O)c2ncn(COC(CO)CO)c2n1 [GCV, ganciclovir]
GCV 25 mg/Kg daily i.p. together with daily i.p. RD-Sindbis/HSVtk from day 3
  effect of prodrug on tumor growth / tumor killing together with vector: significantly improved anti-tumor efficacy; also recorded: dramatically enhanced the Sindbis HSVtk vector treatments and suppressed tumor growth; also recorded: enhanced the killing of Sindbis/tk-infected ES-2/Fluc cells in vivo
GCV 25 mg/Kg daily i.p. without HSVtk expression (no Sindbis/tk)
  therapeutic effect on tumor loading: no therapeutic effect
